The source made the active and inactive calls. The calls are words filed in the database; no cut-off is given here.

Experimental findings from ChEMBL document CHEMBL5036306 (J Med Chem, 2021) are described below.

Test [1] addresses T1, Protein deacetylase HDAC6 (Homo sapiens, UniProt Q9UBN7).
T1 sequence (Q9UBN7 whole entry): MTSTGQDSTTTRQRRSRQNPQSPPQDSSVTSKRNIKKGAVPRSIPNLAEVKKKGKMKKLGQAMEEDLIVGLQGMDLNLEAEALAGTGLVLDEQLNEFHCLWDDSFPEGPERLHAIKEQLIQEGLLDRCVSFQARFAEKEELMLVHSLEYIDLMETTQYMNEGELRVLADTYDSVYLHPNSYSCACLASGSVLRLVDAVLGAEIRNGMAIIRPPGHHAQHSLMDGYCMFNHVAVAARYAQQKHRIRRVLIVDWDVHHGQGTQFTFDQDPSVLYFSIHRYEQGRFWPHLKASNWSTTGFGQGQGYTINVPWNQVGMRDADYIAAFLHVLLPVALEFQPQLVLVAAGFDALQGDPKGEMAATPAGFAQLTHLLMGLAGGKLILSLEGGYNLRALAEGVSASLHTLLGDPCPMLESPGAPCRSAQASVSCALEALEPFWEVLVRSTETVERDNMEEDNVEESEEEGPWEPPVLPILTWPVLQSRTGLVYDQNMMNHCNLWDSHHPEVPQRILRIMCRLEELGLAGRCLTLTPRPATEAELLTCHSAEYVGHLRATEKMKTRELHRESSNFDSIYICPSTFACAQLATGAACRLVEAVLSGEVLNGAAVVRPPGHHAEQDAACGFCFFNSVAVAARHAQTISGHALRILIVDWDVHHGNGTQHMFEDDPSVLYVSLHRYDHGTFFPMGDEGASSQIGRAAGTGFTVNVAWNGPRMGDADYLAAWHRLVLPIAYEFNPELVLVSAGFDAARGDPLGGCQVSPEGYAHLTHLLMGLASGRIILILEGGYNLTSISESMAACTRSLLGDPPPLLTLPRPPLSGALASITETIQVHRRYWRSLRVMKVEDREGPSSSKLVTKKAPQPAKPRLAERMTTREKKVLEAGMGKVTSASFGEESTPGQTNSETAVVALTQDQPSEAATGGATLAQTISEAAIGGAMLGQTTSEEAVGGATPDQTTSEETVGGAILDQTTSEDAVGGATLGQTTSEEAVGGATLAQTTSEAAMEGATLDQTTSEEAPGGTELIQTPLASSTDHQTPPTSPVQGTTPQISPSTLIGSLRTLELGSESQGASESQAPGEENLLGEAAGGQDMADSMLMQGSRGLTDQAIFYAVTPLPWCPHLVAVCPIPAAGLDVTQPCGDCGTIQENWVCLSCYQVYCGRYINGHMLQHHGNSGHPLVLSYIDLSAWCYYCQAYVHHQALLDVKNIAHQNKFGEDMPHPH
Kind of test: Inhibition of recombinant HDAC6 (unknown origin) using Boc-Lys(acetyl)-AMC as substrate preincubated for 1 hr followed by substrate addition and measured after 2 hrs by fluorescence based assay.

The target in test [2] is T2, Histone deacetylase 8 (Homo sapiens, UniProt Q9BY41).
T2 sequence (Q9BY41 whole entry): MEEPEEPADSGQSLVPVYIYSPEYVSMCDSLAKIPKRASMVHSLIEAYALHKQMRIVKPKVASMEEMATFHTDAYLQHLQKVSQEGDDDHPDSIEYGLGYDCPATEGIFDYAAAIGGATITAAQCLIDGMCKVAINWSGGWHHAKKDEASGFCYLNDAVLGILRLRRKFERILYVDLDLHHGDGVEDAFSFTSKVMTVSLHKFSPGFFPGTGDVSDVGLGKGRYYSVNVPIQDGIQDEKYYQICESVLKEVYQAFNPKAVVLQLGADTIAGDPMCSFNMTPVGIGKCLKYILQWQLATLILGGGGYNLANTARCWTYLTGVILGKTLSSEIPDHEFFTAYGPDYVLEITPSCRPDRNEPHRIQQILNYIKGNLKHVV
Kind of test: Inhibition of recombinant HDAC8 (unknown origin) using Boc-Lys(trifluoroacetyl)-AMC as substrate pre-incubated for 1 hr followed by substrate addition and measured after 2 hrs by fluorescence based assay.

In test [3] the target is Histone deacetylase 9 (Homo sapiens, UniProt Q9UKV0). Nature of the test: Inhibition of recombinant HDAC9 (unknown origin) using Boc-Lys(trifluoroacetyl)-AMC as substrate pre-incubated for 1 hr followed by substrate addition and measured after 2 hrs by fluorescence based assay.
Sequence of Histone deacetylase 9 (Q9UKV0 whole entry): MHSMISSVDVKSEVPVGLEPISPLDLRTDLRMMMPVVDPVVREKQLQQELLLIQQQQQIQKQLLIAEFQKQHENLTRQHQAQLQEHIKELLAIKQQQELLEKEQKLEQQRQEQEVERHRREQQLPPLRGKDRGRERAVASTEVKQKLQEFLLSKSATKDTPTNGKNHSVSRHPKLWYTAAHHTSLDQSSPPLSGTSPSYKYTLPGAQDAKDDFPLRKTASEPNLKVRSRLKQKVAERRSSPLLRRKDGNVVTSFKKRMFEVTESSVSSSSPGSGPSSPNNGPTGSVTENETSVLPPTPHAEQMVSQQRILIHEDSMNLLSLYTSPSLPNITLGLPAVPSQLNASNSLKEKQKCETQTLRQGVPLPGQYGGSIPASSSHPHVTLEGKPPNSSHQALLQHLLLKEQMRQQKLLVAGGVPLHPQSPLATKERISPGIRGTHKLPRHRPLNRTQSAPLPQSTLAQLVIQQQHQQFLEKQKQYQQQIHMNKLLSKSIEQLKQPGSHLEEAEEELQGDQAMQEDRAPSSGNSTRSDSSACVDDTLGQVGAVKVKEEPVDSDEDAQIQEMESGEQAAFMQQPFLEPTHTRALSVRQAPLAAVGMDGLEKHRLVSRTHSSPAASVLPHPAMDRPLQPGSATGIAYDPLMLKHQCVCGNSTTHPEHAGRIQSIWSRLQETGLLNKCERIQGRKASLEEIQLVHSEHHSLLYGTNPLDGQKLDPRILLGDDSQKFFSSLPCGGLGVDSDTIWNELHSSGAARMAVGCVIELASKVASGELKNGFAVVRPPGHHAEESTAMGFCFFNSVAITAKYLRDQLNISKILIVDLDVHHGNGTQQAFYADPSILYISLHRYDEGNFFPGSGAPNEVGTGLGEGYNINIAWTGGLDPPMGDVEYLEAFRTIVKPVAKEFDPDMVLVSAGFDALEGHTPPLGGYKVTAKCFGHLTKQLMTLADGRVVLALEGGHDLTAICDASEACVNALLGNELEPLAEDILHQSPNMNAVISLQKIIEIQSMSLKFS
In test [4] the target is T3, Protein deacetylase HDAC6 (Mus musculus) (UniProt Q9Z2V5).
T3 sequence (whole entry): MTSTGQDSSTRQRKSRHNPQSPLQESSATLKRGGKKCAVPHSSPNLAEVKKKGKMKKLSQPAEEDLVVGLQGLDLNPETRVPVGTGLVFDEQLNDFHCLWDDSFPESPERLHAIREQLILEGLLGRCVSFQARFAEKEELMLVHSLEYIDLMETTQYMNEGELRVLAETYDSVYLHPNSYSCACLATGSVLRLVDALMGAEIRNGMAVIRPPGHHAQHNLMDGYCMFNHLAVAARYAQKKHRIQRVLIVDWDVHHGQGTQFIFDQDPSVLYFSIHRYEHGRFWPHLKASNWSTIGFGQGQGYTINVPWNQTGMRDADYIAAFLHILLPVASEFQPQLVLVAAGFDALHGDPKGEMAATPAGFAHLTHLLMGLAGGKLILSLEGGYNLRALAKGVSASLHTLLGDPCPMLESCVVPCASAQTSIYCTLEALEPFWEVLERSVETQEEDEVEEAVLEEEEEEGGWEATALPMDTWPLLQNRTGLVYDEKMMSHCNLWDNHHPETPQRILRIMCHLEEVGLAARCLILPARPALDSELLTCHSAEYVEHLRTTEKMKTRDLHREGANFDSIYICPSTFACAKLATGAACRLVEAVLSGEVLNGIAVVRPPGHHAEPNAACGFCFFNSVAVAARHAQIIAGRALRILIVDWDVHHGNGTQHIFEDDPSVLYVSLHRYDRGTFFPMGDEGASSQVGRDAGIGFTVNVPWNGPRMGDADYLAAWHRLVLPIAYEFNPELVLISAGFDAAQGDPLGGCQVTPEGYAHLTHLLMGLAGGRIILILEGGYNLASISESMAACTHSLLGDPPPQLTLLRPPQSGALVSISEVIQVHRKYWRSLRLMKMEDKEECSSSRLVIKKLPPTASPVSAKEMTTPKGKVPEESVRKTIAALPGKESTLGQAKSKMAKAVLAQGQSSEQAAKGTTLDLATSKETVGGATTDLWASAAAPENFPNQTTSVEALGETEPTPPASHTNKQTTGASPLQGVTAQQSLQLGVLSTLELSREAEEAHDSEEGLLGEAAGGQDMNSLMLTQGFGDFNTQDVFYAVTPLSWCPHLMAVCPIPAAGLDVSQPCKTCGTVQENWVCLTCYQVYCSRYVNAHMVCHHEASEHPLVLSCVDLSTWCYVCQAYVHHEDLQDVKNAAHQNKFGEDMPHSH
Kind of test: Inhibition of HDAC6 in mouse HT-22 cells assessed as increase in acetylated tubulin level at 20 to 500 nM after 24 hrs by Western blotting analysis. Format: cell-based. Conditions: dose 20-500 nM.

The target of test [5] is T3, Protein deacetylase HDAC6 (Mus musculus). Nature of the test: Inhibition of HDAC6 in mouse HT-22 cells assessed as increase in acetylated histone H4 level at 20 to 500 nM after 24 hrs by Western blotting analysis. Format: cell-based. Conditions: dose 20-500 nM. (In western blotting, separated proteins are transferred to a membrane and probed.)

One may read the IC50 as the concentration that gives 50% inhibition. Take `COc1ccc2[nH]cc(CCN(Cc3ccc(C(=O)NO)cc3)C(=O)/C=C/c3ccc(O)c(OC)c3)c2c1`: the results for the IC50 in test [1], in test [2] and in test [3] were 30.7 nM, 3590 nM and > 10000 nM, respectively. Further, the inhibition result in test [4] is “Active”. Moreover, in test [5], the inhibition entry is “inactive”.

Turning to `COc1ccc2c(c1)c(CCNC(C)=O)cn2Cc1ccc(C(=O)NO)cc1`, the IC50 in test [1] was 11.2 nM; in test [2], 838 nM; in test [3], 362 nM.
